Where two headings read alike, the source gives them in different places.
Assay: Biodistribution after oral administration
Format: in vivo, Sprague-Dawley Rats
Details: 75 mg/kg oral; for concentration at 8 h / Kp at 8 h / concentration at 0.25 h / Kp at 0.25 h / concentration at 2 h / Kp at 2 h: male, Sprague-Dawley, rat; for concentration at 8 h / concentration at 0.25 h / concentration at 2 h: read-out: Mean plasma/tissue concentration; for Kp at 8 h / Kp at 0.25 h / Kp at 2 h: read-out: Ratio (tissue to plasma)
Experimental: Male Sprague-Dawley Rats (total of 6 animals) 6 to 8 weeks of age (210-227 g) was used in this biodistribution study. Compound 1 was dosed at 75 mg/kg to all animals through oral route of administration at a 10 ml/kg dose volume. Compound 1 formulation was freshly prepared in Tween-80+0.5% methyl cellulose and maintained at room temperature until dosing. Dose was administered in all animals under fasted conditions. […] Heart, lung, liver, kidney, stomach, small intestine, large intestine, skeletal muscle, brain, spleen, pancreas and adipose were harvested while blood was processed to plasma for bioanalytical quantification of Compound 1.
Compound 1 bioanalytical assay was developed and validated using the SCIEX 6500 LC-MS/MS. A mobile phase (isocratic flow) comprised of Acetonitrile and 0.2% formic acid in MilliQ water in a Atlantis dC18-HPLC column (50×4.6 mm, […]), with a flow rate of 0.9 mL/min and a run time of 2.20 min. Mass transition (m/z) of 375.040 and 188.100 was used for detection of Compound 1 at an LLOQ of 2.14 ng/mL.

SMILES: COc1ccccc1-c1nc(CNC(=O)c2ccccc2OC(F)F)n[nH]1 [Compound 1, 2-(difluoromethoxy)-N-[[5-(2-methoxyphenyl)-1H-1,2,4-triazol-3-yl]methyl]benzamide]
- Tissue distribution: Drug distribution was revealed across all tissues
- Blood brain barrier penetration (8 hours): brain barrier penetration observed
- Percentage (plasma to tissue) (Adipose tissue, 0.25 hours): 1.94%
- Percentage (plasma to tissue) (Adipose tissue, 2 hours): 2.36%
- Percentage (plasma to tissue) (Adipose tissue, 8 hours): 3.06%
- Percentage (plasma to tissue) (Brain, 0.25 hours): 0.79%
- Percentage (plasma to tissue) (Brain, 2 hours): 0.57%
- Percentage (plasma to tissue) (Brain, 8 hours): 2.18%
- Percentage (plasma to tissue) (Heart, 0.25 hours): 1.89%
- Percentage (plasma to tissue) (Heart, 2 hours): 2.59%
- Percentage (plasma to tissue) (Heart, 8 hours): 4.19%
- Percentage (plasma to tissue) (Kidney, 0.25 hours): 2.99%
- Percentage (plasma to tissue) (Kidney, 2 hours): 2.92%
- Percentage (plasma to tissue) (Kidney, 8 hours): 4.16%
- Percentage (plasma to tissue) (Liver, 0.25 hours): 12.5%
- Percentage (plasma to tissue) (Liver, 2 hours): 10.6%
- Percentage (plasma to tissue) (Liver, 8 hours): 16.5%
- Percentage (plasma to tissue) (Lungs, 0.25 hours): 3.91%
- Percentage (plasma to tissue) (Lungs, 2 hours): 2.93%
- Percentage (plasma to tissue) (Lungs, 8 hours): 5.06%
- Percentage (plasma to tissue) (Pancreas, 0.25 hours): 3.42%
- Percentage (plasma to tissue) (Pancreas, 2 hours): 3.18%
- Percentage (plasma to tissue) (Pancreas, 8 hours): 7.60%
- Percentage (plasma to tissue) (Plasma, 0.25 hours): 3.59%
- Percentage (plasma to tissue) (Plasma, 2 hours): 2.29%
- Percentage (plasma to tissue) (Plasma, 8 hours): 5.37%
- Percentage (plasma to tissue) (Skeletal Muscle, 0.25 hours): 0.77%
- Percentage (plasma to tissue) (Skeletal Muscle, 2 hours): 0.85%
- Percentage (plasma to tissue) (Skeletal Muscle, 8 hours): 20.5%
- Percentage (plasma to tissue) (Small intestine, 0.25 hours): 21.9%
- Percentage (plasma to tissue) (Small intestine, 2 hours): 21.9%
- Percentage (plasma to tissue) (Small intestine, 8 hours): 4.82%
- Percentage (plasma to tissue) (Spleen, 0.25 hours): 4.26%
- Percentage (plasma to tissue) (Spleen, 2 hours): 1.68%
- Percentage (plasma to tissue) (Spleen, 8 hours): 7.84%
- Percentage (plasma to tissue) (Stomach, 0.25 hours): 42.7%
- Percentage (plasma to tissue) (Stomach, 2 hours): 48.1%
- Percentage (plasma to tissue) (Stomach, 8 hours): 18.8%
- concentration at 8 h (lung, Lungs, 8 hours): 78.2 ng/g
- Kp at 8 h (lung, Lungs, 8 hours): 0.94
- concentration at 0.25 h (Adipose tissue, 0.25 hours): 1530 ng/g
- Kp at 0.25 h (Adipose tissue, 0.25 hours): 0.54
- concentration at 2 h (Adipose tissue, 2 hours): 2030 ng/g
- Kp at 2 h (Adipose tissue, 2 hours): 1.03
- concentration at 8 h (Adipose tissue, 8 hours): 47.2 ng/g
- Kp at 8 h (Adipose tissue, 8 hours): 0.57
- concentration at 0.25 h (Brain, 0.25 hours): 624 ng/g
- Kp at 0.25 h (Brain, 0.25 hours): 0.22
- concentration at 2 h (Brain, 2 hours): 494 ng/g
- Kp at 2 h (Brain, 2 hours): 0.25
- concentration at 8 h (Brain, 8 hours): 33.6 ng/g
- Kp at 8 h (Brain, 8 hours): 0.4
- concentration at 0.25 h (Heart, 0.25 hours): 1490 ng/g
- Kp at 0.25 h (Heart, 0.25 hours): 0.53
- concentration at 2 h (Heart, 2 hours): 2230 ng/g
- Kp at 2 h (Heart, 2 hours): 1.13
- concentration at 8 h (Heart, 8 hours): 64.8 ng/g
- Kp at 8 h (Heart, 8 hours): 0.78
- concentration at 0.25 h (Kidney, 0.25 hours): 2360 ng/g
- Kp at 0.25 h (Kidney, 0.25 hours): 0.83
- concentration at 2 h (Kidney, 2 hours): 2520 ng/g
- Kp at 2 h (Kidney, 2 hours): 1.27
- concentration at 8 h (Kidney, 8 hours): 64.2 ng/g
- Kp at 8 h (Kidney, 8 hours): 0.77
- concentration at 0.25 h (Liver, 0.25 hours): 9890 ng/g
- Kp at 0.25 h (Liver, 0.25 hours): 3.49
- concentration at 2 h (Liver, 2 hours): 9140 ng/g
- Kp at 2 h (Liver, 2 hours): 4.63
- concentration at 8 h (Liver, 8 hours): 255 ng/g
- Kp at 8 h (Liver, 8 hours): 3.06
- concentration at 0.25 h (Lungs, 0.25 hours): 3090 ng/g
- Kp at 0.25 h (Lungs, 0.25 hours): 1.09
- concentration at 2 h (Lungs, 2 hours): 2520 ng/g
- Kp at 2 h (Lungs, 2 hours): 1.28
- concentration at 0.25 h (Pancreas, 0.25 hours): 2700 ng/g
- Kp at 0.25 h (Pancreas, 0.25 hours): 0.95
- concentration at 2 h (Pancreas, 2 hours): 2740 ng/g
- Kp at 2 h (Pancreas, 2 hours): 1.39
- concentration at 8 h (Pancreas, 8 hours): 117 ng/g
- Kp at 8 h (Pancreas, 8 hours): 1.41
- concentration at 0.25 h (Plasma, 0.25 hours): 2.83 µg/mL
- concentration at 2 h (Plasma, 2 hours): 1.98 µg/mL
- concentration at 8 h (Plasma, 8 hours): 0.0831 µg/mL
- concentration at 0.25 h (Skeletal Muscle, 0.25 hours): 607 ng/g
- Kp at 0.25 h (Skeletal Muscle, 0.25 hours): 0.21
- concentration at 2 h (Skeletal Muscle, 2 hours): 734 ng/g
- Kp at 2 h (Skeletal Muscle, 2 hours): 0.37
- concentration at 8 h (Skeletal Muscle, 8 hours): 316 ng/g
- Kp at 8 h (Skeletal Muscle, 8 hours): 3.81
- concentration at 0.25 h (Small intestine, 0.25 hours): 16700 ng/g
- Kp at 0.25 h (Small intestine, 0.25 hours): 5.9
- concentration at 2 h (Small intestine, 2 hours): 18800 ng/g
- Kp at 2 h (Small intestine, 2 hours): 9.53
- concentration at 8 h (Small intestine, 8 hours): 74.4 ng/g
- Kp at 8 h (Small intestine, 8 hours): 0.9
- concentration at 0.25 h (Spleen, 0.25 hours): 3360 ng/g
- Kp at 0.25 h (Spleen, 0.25 hours): 1.19
- concentration at 2 h (Spleen, 2 hours): 1450 ng/g
- Kp at 2 h (Spleen, 2 hours): 0.73
- concentration at 8 h (Spleen, 8 hours): 121 ng/g
- Kp at 8 h (Spleen, 8 hours): 1.46
- concentration at 0.25 h (Stomach, 0.25 hours): 33700 ng/g
- Kp at 0.25 h (Stomach, 0.25 hours): 11.9
- concentration at 2 h (Stomach, 2 hours): 41500 ng/g
- Kp at 2 h (Stomach, 2 hours): 21
- concentration at 8 h (Stomach, 8 hours): 290 ng/g
- Kp at 8 h (Stomach, 8 hours): 3.5

From patent US20240342138A1, “MICROTUBULE TARGETING AGENTS” (BPGbio, Inc., priority 2023, published 2024)
